In publication PMC10319809, “Chronic UCN2 treatment desensitizes CRHR2 and improves insulin sensitivity” (Nature Communications, 2023):
Where “and” joins values, the source holds several entries; their conditions need not be identical. Identical values can stand only once. Where no end group is shown, it is not given here.

Tests used:
[1] = target: T1, HA-tagged CRHR2a (Homo sapiens, UniProt Q13324); assay: CRHR2 surface expression / internalization, confocal imaging of HEK293 cells with HA-tagged CRHR2a; assay type: cell-based; conditions: 100 nM UCN2, HEK cells with HA-tagged CRHR2a; n = 4
T1 construct: expressed in transfected cells; host or cells: HEK293 cells, transient transfection with pcDNA3.1(+) plasmid using Lipofectamine 3000
T1 sequence (Q13324 1-411): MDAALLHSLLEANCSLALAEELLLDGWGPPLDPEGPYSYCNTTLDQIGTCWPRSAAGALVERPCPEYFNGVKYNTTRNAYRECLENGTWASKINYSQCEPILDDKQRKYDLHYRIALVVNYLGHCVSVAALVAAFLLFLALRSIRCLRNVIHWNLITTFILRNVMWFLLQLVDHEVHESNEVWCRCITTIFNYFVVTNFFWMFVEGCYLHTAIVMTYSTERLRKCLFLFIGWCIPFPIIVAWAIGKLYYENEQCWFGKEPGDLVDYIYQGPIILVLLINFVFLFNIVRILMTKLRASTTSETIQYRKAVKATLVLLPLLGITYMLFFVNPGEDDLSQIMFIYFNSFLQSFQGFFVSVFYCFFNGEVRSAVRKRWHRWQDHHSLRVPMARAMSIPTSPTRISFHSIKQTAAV
Method: β-Arrestin recruitment can sometimes cause the internalization of the receptor to which it is recruited. To assess whether CRHR2 is internalized following UCN2 treatment, we quantified CRHR2 receptor surface expression using confocal imaging of HEK cells transiently transfected with a plasmid expressing a […] CRHR2a construct (Fig. S3). Cells were treated with saline or 100 nM (−7.0 log[M]) UCN2 and surface expression was determined by fluorescent anti-HA antibody-binding, with and without permeabilizing the cell.
HEK293 cells were plated at a density of 10,000 cells per well into tissue culture-treated clear bottomed, optical microscopy quality, 96 well plates (Perkin Elmer, PhenoPlate 96-well) and grown for 1 day to ~40–60% confluency. Twenty-four hours after plating, cells were transfected with 50 ng of pcDNA3.1(+) plasmid encoding a N-terminally tagged CRHR2α construct using Lipofectamine 3000 (Thermofisher) following manufacturing protocols. Twenty-four hours following transfection, agonists were then added for 30 min and cells were incubated at 37 °C. Prior to imaging, cells were washed once with PBS and fixed with ice-cold 4% paraformaldehyde in PBS for 15 min. After washing 3 times with PBS, cells were kept in the Alexa Fluor 647 anti-HA (1:2000 dilution, BioLegend cat# 682404) diluted in 5% normal goat serum in PBS. […]

[2] = target: T2, CRHR2 alpha (Homo sapiens, UniProt Q13324); assay: HTRF cAMP assay in HEK-TREX-CRHR2 alpha cells, with or without UCN2 pre-treatment; assay type: cell-based; conditions: n = 3
T2 construct: host or cells: HEK-TREX-CRHR2 alpha cells, non-induced
T2 sequence (Q13324 1-411): T1 sequence (Q13324 1-411)
Method: To determine whether CRHR2 functional desensitization in response to UCN2 occurred tissue-autonomously, we turned to CRHR2-transfected HEK 293 cells.
To measure cell-based CRHR2 agonist activity a HTRF (Homogenous Time-Resolved Fluorescence) cAMP detection kit (Cisbio cAMP dynamic 2 assay kit) was performed in non-induced HEK-TREX-CRHR2 alpha cells (Fisher Scientific). Cells were plated one day before the assay in 384-well plates at 1500 cells/well and assayed in adherent mode by removing the media, patting on paper towel and adding 10 µl of 1 µM of UCN2 or vehicle control for 1 h. Cells were gently washed 3 times with wash buffer and rested for 6 h in incubator. Following rest, cells were restimulated with titrating concentrations of UCN2 with IBMX, at a final concentration of 250 µM. Reactions continued for 30 min at 37 °C followed by addition of detection reagents and a one-hour minimum incubation at room temperature. HTRF, a competitive immunoassay, produces a fluorescence signal read with an Envision multi-plate reader using an excitation of 330 nm and emissions of 615 and 665 nm. By interpolation from a cAMP standard curve, raw data were converted to nm cAMP and then expressed as percent effect of 1 µM UCN2 in vehicle control pretreatment conditions.

[3] = test system: mouse soleus muscle; assay: Ex vivo soleus muscle [3H]2-deoxyglucose uptake
Method: Soleus muscle was removed from fed animals anesthetized by an intraperitoneal injection of pentobarbital (10 mg/100 g body weight). Dissected soleus muscles were suspended at 5 mN of tension in incubation chambers (Model 610/820 M, Danish Myo-Technology, Denmark) containing Krebs-Ringer-Buffer supplemented with 0.1% BSA, 2 mM pyruvate and 8 mM Mannitol. During the entire incubation period the KRB was maintained at 30 °C and oxygenated with 95% O2 and 5% CO2. Following 10 min of pre-incubation muscles were incubated in Krebs buffer +/− 100 nM (−7.0 log[M]) UCN2. At the next time point, 30 min later, muscles were placed in baths containing Krebs buffer +/− 100 nM (−7.0 [M]) UCN2. At the next time point, 15 min later, muscles were placed in baths containing Krebs buffer +/− 100 nM (−7.0 log[M]) UCN2 + /− 60 nM Insulin (Actrapid, Novo Nordisk, Bagsvaerd, Denmark) for 15 min. For the ex vivo glucose uptake studies, 1 mM [^3H]2-deoxyglucose (Perkin-Elmer) and 7 mM [^14C]mannitol (Perkin-Elmer) was also added at this time. Muscles that were in saline in the first bath, saline in the second bath, and saline in the third bath were assigned to the SSS group. Muscles that were in saline in the first bath, saline in the second bath, and UCN2 in the third bath were assigned to the SSU group. Muscles that were in UCN2 in the first bath, saline in the second bath, and UCN2 in the third bath were assigned to the USU group. Muscles that were in saline in the first bath, UCN2 in the second bath, and UCN2 in the third bath were assigned to the SUU group. Following incubation, muscles were harvested, washed in ice-cold KRB and immediately frozen in liquid nitrogen.
Glucose uptake was determined in muscle protein lysates by assessing the accumulation of [^3H]2-deoxyglucose with the use of [^14C]mannitol to correct for the extracellular space. Radioactivity was measured by liquid scintillation counting.

“IVLSLDVPIGLLQILLEQARARAAREQATTNARILARVGHC-NH2 (C-terminus assumed) [UCN2, Urocortin 2]” was tested, and the “CRHR2 internalization / surface receptor expression” value [1] was “increase of CRHR2 internalization and decreased surface receptor expression”, the “cAMP response to subsequent UCN2 after UCN2 pre-treatment” value ([2]; 1 µM UCN2 for 1 h, wash, 6 h rest, restimulation) was “significantly blunts the cAMP activation response” and the “cAMP response to increasing concentrations” value ([2]; CRHR2-transfected HEK 293 cells, 30 min at 37 °C, IBMX 250 µM) was “increases in a dose-dependent manner”. The “2DG Uptake” value ([3]; Fig 6C, UCN2 without insulin, individual muscles) was 0.55 µmol/g/h and 1.85 µmol/g/h and 0.61 µmol/g/h and 0.24 µmol/g/h and 0.63 µmol/g/h, the “insulin-mediated glucose uptake, acute treatment ex vivo” value ([3]; soleus muscle, 100 nM UCN2, 60 nM insulin) was “sufficient to blunt insulin-mediated glucose uptake” and the “insulin-mediated glucose uptake after UCN2 pre-treatment ex vivo” value ([3]; soleus muscle, 100 nM UCN2 pre-treatment (SUU, USU) versus acute (SSU)) was “increased insulin-mediated glucose uptake relative to acute UCN2 treatment”.
